# Source: article PMC12263422, “Cryo-EM structure of the human THIK-1 K2P K^+ channel reveals a lower Y gate regulated by lipids and anesthetics” (Nature Structural & Molecular Biology, 2025)
# Positions count from the first letter of the chain named. Several values for one entry are separate records, joined by “and”; a condition that tells them apart may be missing. Equal values may be shown once. Read-outs that look alike come from different tables or passages of the source.
# What was measured:
# THIK-1 T110A = target: T1, THIK-1 T110A (Homo sapiens, UniProt Q9HB14, T110A); test: Inside-out excised patch recordings, oocytes, THIK-1 T110A mutant; type: cell-based
# T1 construct: expressed in transfected cells; host or cells: Xenopus oocytes (mRNA injection)
# T1 sequence (Q9HB14 1-408 T110A): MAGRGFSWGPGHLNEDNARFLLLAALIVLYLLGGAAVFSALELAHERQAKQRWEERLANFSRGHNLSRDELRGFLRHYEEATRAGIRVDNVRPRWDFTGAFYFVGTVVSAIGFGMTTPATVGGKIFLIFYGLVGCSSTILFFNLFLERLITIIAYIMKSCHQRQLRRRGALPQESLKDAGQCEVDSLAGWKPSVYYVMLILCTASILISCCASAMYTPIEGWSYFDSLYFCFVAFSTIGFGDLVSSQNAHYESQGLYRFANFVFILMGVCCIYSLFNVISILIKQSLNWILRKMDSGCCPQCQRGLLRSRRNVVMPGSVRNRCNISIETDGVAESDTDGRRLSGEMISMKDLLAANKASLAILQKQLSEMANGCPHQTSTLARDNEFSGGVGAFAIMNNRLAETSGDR
# Source text: (§1) Human K2P13.1 THIK-1 (GenBank accession number: NM_022054) and human K2P12.1 THIK-2 (NM_022055.1) were used in this study. For functional expression studies, the respective K^+ channel subtype coding sequences were subcloned into the oocyte expression vector pSGEM or the dual-purpose expression vector pFAW[41] and verified by sequencing. All mutant channels were obtained by site-directed mutagenesis and verified by sequencing. To increase surface expression and macroscopic currents, measurements of THIK-2 channels used a mutated ER retention motif, (R11A R12A R14A R15A R16A; THIK-2*)[20]. Vector DNA was linearized with NheI or MluI, and mRNA was synthesized in vitro using the SP6 or T7 AmpliCap Max High Yield Message Maker Kit (Cellscript, USA) or HiScribe T7 ARCA mRNA Kit (New England Biolabs).
# Two-electrode voltage–clamp (TEVC) studies were performed in Xenopus oocytes. All animal use conformed to the Guide for the Care and Use of Laboratory Animals (NIH Publication 85–23), and all experiments using Xenopus toads were approved by the local ethics panels. Oocytes were stored at 17 °C in ND96 recording solution composed of (in mM): 96 NaCl, 2 KCl, 1.8 CaCl2, 1 MgCl2, 5 HEPES (pH 7.5 adjusted with NaOH and HCl), supplemented with Na-pyruvate (275 mg L^–1), theophylline (90 mg L^–1) and gentamicin (50 mg L^–1). Oocytes were injected with 1 ng mRNA for WT or mutant channels, and were incubated for 24–48 h at 17 °C. Two-electrode voltage clamp recordings were then performed as previously described[42],[43]. For macroscopic patch–clamp measurements, oocytes were obtained as described above incubated at 17 °C in a solution containing (mM): 54 NaCl, 30 KCl, 2.4 NaHCO3, 0.82 MgSO4 ×7 H2O, 0.41 CaCl2, 0.33 Ca(NO3)2 ×4 H2O and 7.5 TRIS (pH 7.4 adjusted with NaOH and HCl) for 1–4 days before use. Excised patch recordings in inside-out configuration conditions were performed at room temperature. Patch pipettes were made from thick-walled borosilicate glass GB 200TF-8P (Science Products), had resistances of 0.2–0.5 MΩ (tip diameter, 10–25 µm) and filled with a pipette solution (in mM): 120 KCl, 10 HEPES and 3.6 CaCl2 (pH 7.4 adjusted with KOH and HCl). Intracellular bath solutions and compounds were applied to the cytoplasmic side of excised patches for the various K^+ channels through a gravity flow multi-barrel pipette system. The intracellular solution had the following composition (in mM): 120 KCl, 10 HEPES, 2 EGTA and 1 pyrophosphate (pH adjusted with KOH and HCl). Currents were recorded with an EPC10 amplifier (HEKA Electronics) and sampled at 10 kHz or higher, with filtering set to 3 kHz (–3 dB) or higher, as appropriate for sampling rate. For measurements of GPCR activation, whole-cell currents were recorded for THIK-1 in transiently transfected HEK-293 cells. Cells were stimulated by a ramp protocol between −100 and +60 mV (holding potential, −80 mV). The pipette solution was composed of (in mM): 140 KCl, 2 MgCl2, 1 CaCl2, 2.5 EGTA and 10 HEPES (pH 7.3 adjusted with KOH and HCl). The extracellular bath solution had the following composition (in mM): 135 NaCl, 5 KCl, 2 MgCl2, 2 CaCl2, 10 glucose and 10 HEPES pH (pH 7.3 adjusted with NaOH and HCl). Oxotremorine M (Oxo-M) was added to extracellular bath solution to obtain the final concentration. Single-channel currents were recorded with an Axopatch 200B amplifier through a Digidata 1440A digitizer (Molecular Devices). Data were filtered at 2 kHz and recorded at a 200-kHz sampling rate with the program Clampex (Molecular Devices). Pipette solution and bath solution for cell-attached recordings contained (in mM): 140 KCl, 2 MgCl2, 1 CaCl2 and 10 HEPES (pH 7.4 adjusted with KOH and HCl). For inside-out recordings, the bath solution contained (in mM): 140 KCl, 2 MgCl2, 1 CaCl2 and 10 HEPES (pH 7.2 adjusted with KOH and HCl). All experiments were conducted at room temperature. […]
# THIK-1 C135A = target: T2, THIK-1 C135A (Homo sapiens, UniProt Q9HB14, C135A); test: Inside-out excised patch recordings, oocytes, THIK-1 C135A mutant; type: cell-based; settings: read-out: TPenA IC50
# T2 construct: expressed in transfected cells; host or cells: Xenopus oocytes (mRNA injection)
# T2 sequence (Q9HB14 1-408 C135A): T1 sequence (Q9HB14 1-408 T110A) with A110T, C135A
# Source text: as §1
# Two-electrode voltage–clamp (TEVC) studies were performed in Xenopus oocytes. All animal use conformed to the Guide for the Care and Use of Laboratory Animals (NIH Publication 85–23), and all experiments using Xenopus toads were approved by the local ethics panels. Oocytes were stored at 17 °C in ND96 recording solution composed of (in mM): 96 NaCl, 2 KCl, 1.8 CaCl2, 1 MgCl2, 5 HEPES (pH 7.5 adjusted with NaOH and HCl), supplemented with Na-pyruvate (275 mg L^–1), theophylline (90 mg L^–1) and gentamicin (50 mg L^–1). Oocytes were injected with 1 ng mRNA for WT or mutant channels, and were incubated for 24–48 h at 17 °C. Two-electrode voltage clamp recordings were then performed as previously described[42],[43]. […] Currents were recorded with an EPC10 amplifier (HEKA Electronics) and sampled at 10 kHz or higher, with filtering set to 3 kHz (–3 dB) or higher, as appropriate for sampling rate. For measurements of GPCR activation, whole-cell currents were recorded for THIK-1 in transiently transfected HEK-293 cells. […] Single-channel currents were recorded with an Axopatch 200B amplifier through a Digidata 1440A digitizer (Molecular Devices). Data were filtered at 2 kHz and recorded at a 200-kHz sampling rate with the program Clampex (Molecular Devices). […]
SMILES,"Inhibition (%) (THIK-1 T110A; 3.0 mM halothane, T110A, individual recordings)","inhibition at 152 µM (THIK-1 T110A; halothane 0.152 mM, THIK-1 T110A) [%]","inhibition at 304 µM (THIK-1 T110A; halothane 0.304 mM, THIK-1 T110A) [%]","inhibition at 1520 µM (THIK-1 T110A; halothane 1.52 mM, THIK-1 T110A) [%]","inhibition at 3040 µM (THIK-1 T110A; halothane 3.04 mM, THIK-1 T110A) [%]","inhibition at 15200 µM (THIK-1 T110A; halothane 15.2 mM, THIK-1 T110A) [%]","Normalized currents (THIK-1 T110A; THIK-1 T110A, 15.6 µM TPenA)","Normalized currents (THIK-1 T110A; THIK-1 T110A, 62.5 µM TPenA)","Normalized currents (THIK-1 T110A; THIK-1 T110A, 250 µM TPenA)","Normalized currents (THIK-1 T110A; THIK-1 T110A, 1000 µM TPenA)","Normalized currents (THIK-1 T110A; THIK-1 T110A, 4000 µM TPenA)","IC50 (THIK-1 T110A; TPenA IC50, T110A mutant) [µM]","IC50 (THIK-1 T110A; TPenA IC50, THIK-1 T110A, individual recordings)","IC50 (THIK-1 T110A; TPenA IC50, THIK-1 T110A, mean) [µM]",IC50 (THIK-1 C135A; C135A mutant) [µM],"IC50 (THIK-1 C135A; THIK-1 C135A, individual recordings)","IC50 (THIK-1 C135A; THIK-1 C135A, mean) [µM]"
FC(F)(F)C(Cl)Br (centres unmarked) [halothane],71.250% and 68.098% and 66.319% and 64.813% and 55.507% and 41.148% and 63.240% and 65.945% and 75.271%,9.23,14.1,45.3,63.5,89.5,,,,,,,,,,,
"CCCCC[N+](CCCCC)(CCCCC)CCCCC [TPenA, tetrapentylammonium]",,,,,,,1.00,0.95,0.81,0.57,0.28,1280,583 µM and 1570 µM and 596 µM and 1530 µM and 2420 µM and 1850 µM and 1140 µM and 1600 µM and 1210 µM and 982 µM and 651 µM,1280,1060,1250 µM and 1270 µM and 1530 µM and 1180 µM and 748 µM and 1440 µM and 621 µM and 466 µM,1060
